The source of these data is patent US20040229816A1, “Anti-angiogenic and anti-tumoral properties of beta and gamma secretase inhibitors” (priority 2003, published 2004).

One data set concerns Notch. The conditions noted are these: cited from earlier work.
Another data set relates to presenilin 1 and 2. The conditions noted are these: cited from earlier work.
The nature of data set [1]: angiogenesis in vitro (test not specified). Format: cell-based.
Data set [2] relates to human brain endothelial cells. Put plainly: proliferation of human brain endothelial cells (Quick cell proliferation assay kit). Format: cell-based. The conditions noted are these: various doses, 24 hours. The procedure: (§1) Primary cultures of human brain endothelial cells were plated at a density of 10^4 cells/[…] of EBM 4% in 96 wells culture plates and treated with various doses of γ-secretase and β-secretase inhibitors as indicated in the figure legends. Following 24 hours in culture, the EBM covering the cells was removed and assayed for Lacticodehydrogenase (LDH) activity using the cytotoxicity detection kit (Roche Diagnostic Corporation, Ind.). Cells were covered with […] of EBM 4% and cellular proliferation measured using the Quick cell proliferation assay kit (Biovision Research Products, Calif.).

Data set [3] relates to human lung adenocarcinoma (A-549) xenografts. Put plainly: human lung adenocarcinoma A-549 xenografts in nude mice. In kind it is in vivo. The procedure:
FIG. 9a: Anti-tumoral effect of the γ-secretase inhibitor DAPT and of the β-secretase inhibitor Z-VLL-CHO on human lung adenocarcinoma (A-549) xenografts growth rates. A-549 cells (8.5×10^6) were injected subcutaneously into both flanks of 8-10 weeks-old nude mice. Mice were injected intraperitoneally with either the vehicle, 5 mg/Kg of body weight of the β-secretase inhibitor Z-VLL-CHO or 10 mg/Kg of body weight of the γ-secretase inhibitor DAPT, starting when tumors had reached a mean tumor volume of approximately 200 mm^3 (day 21 post implantation). Injections were given everyday for 12 days. […] FIG. 9b: Representative pictures of sections of lung adenocarcinoma tumors immunostained with CD31 antibodies. FIG. 9c: Histogram depicting the quantification of the vascularization of lung adenocarcinoma tumors.
FIG. 10: Anti-tumoral effect of the γ-secretase inhibitor JLK-6 on human lung adenocarcinoma (A-549) xenografts growth rates. A-549 cells (8.5×10^6) were injected subcutaneously into both flanks of 8-10 weeks-old nude mice. Mice were injected intraperitoneally everyday from Day 16 (when the tumors reached a volume of approximately 150 mm^3) with either the vehicle or 5 mg/Kg of body weight of the γ-secretase inhibitor JLK-6.
The human glioblastoma U-87 MG and human lung adenocarcinoma A-549 cell lines were obtained from American Tissue Culture Type Collection (Manassas, Va.) and were grown in DMEM containing 1×penicilline-streptomycine-fungizone and 10% fetal bovine serum at 37° C. in a humidified atmosphere of 5% CO2. Tumor cells (6×106) in 100 μl of PBS were inoculated subcutaneously into both flanks of 8-10-week-old female nude mice (Harland). Tumor volume (in mm^3) was determined using the formula (length×width^2)/2, where length was the longest axis and width the measurement at right angles to the length (Clarke et al. 2000). When the tumor volumes reached approximately 150 mm^3, animals were treated intraperitoneally everyday with 100 μl of 50% DMSO/H2O (vehicle group), 5 mg/Kg of body weight of Z-VLL-CHO (β-secretase inhibitor), 5 mg/Kg of JLK-6 (γ-secretase inhibitor) or with 10 mg/Kg of body weight of DAPT. Data were expressed as mean tumor volume±S.E for each treatment group.
At the completion of the study, animals were humanely euthanized and tumors were harvested and fixed in paraformaldehyde 4% overnight at 4° C. After paraffin embedding in an automated tissue processing Sakura Tissue-Tek (E150) (Torrence, Calif.), samples were cut into 5 μm sections, deparafinized, and rehydrated through a graded series of alcohol. Sections were treated with 0.02 mg/ml Proteinase K (Gentra Systems, MN) for 15 minutes at 37° C. to allow for proper antigen retrieval, washed several times in PBS and incubated for 15 minutes in a 0.3% solution of hydrogen peroxide. Sections were blocked and then immunostained with a 1:40 dilution of a PECAM-1 antibody (BD-Pharmingen, CA) overnight at 4° C. in a humidification chamber. Vector ABC Kits (Vector Laboratories Inc, CA) where used following the manufacturer's instruction for the immunostaining. Quantification of tumor vascularization was performed using the stereological dissector method. Briefly, forty consecutive sections were taken from a randomly chosen starting point in each tumor. Five sections for each tumor were selected for stereology by taking one section every eight sections. A dissector counting frame was used with inclusion and exclusion lines throughout the reference area. Vessel count was performed at ×400 magnification with the use of an Olympus microscope connected to a digital video camera. Microvessels were counted in the dissector frame by an experimenter unaware of the different treatment conditions. For each tumor an average vessel count per area of dissector frame was determined. A vascular index was calculated by expressing the vessel count as a percentage of the vessel count in the vehicle treatment condition.

Data set [4] concerns human brain endothelial cells. Briefly: viability of human brain endothelial cells (LDH activity in culture medium). In kind it is cell-based. The conditions noted are these: doses employed, 24 hours. The procedure: as §1

Each structure is given as a SMILES string. Entries after “also recorded” stand apart in the source; their conditions may differ.

As to `COc1oc(=O)c2cc(N)ccc2c1Cl` [JLK-6, 7-amino-4-chloro-3-methoxyisocoumarin], the “processing of Notch” value with Notch is “does not affect”. Further, the “proteolysis of presenilin 1 and 2” value with presenilin 1 and 2 is “does not affect”. Further, the angiogenesis in vitro result in data set [1] is given as “appears to reduce angiogenesis”. Also, the “proliferation of human brain endothelial cells, dose dependence” value in data set [2] is on record as “dose dependently inhibited”. Also, the “vascularization of A-549 tumors” value in data set [3] (5 mg/Kg intraperitoneally) is on record as “inhibited”. Moreover, the “growth (tumor volume) of A-549 xenografts versus vehicle” value in data set [3] (5 mg/Kg intraperitoneally everyday from Day 16) is “inhibited; also recorded: significantly inhibits the growth; also recorded: inhibit the growth”. Besides, in data set [4], the “cellular toxicity / viability of human brain endothelial cells versus control” value is reported as “without inducing cellular toxicity”.
